Experiment: gradient 5% acetonitrile 3 min, to 50% in 2 min, to 85% in 15 min, held 3 min, 100 µL/min
Conditions: column: Zorbax Extend-C18 2.1 x 50 mm; eluents: water / acetonitrile, 0.1% formic acid
Method in brief: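 Using water and acetonitrile that each contained 0.1% formic acid, mixtures of ~100 pure standards were separated at 100 μL/min on a Zorbax Extend-C18 column (2.1 × 50 mm, 1.8 μm). The HPLC fed a quadrupole time-of-flight mass spectrometer working in positive and negative ionization mode, with dead and dwell volumes of 40 μL and 900 μL. Data were acquired over 3 months. Retention time was read from computationally picked adduct peaks after manual inspection of each.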

Row | Structure (SMILES) | RP-LC retention time [s]
1 | Cc1noc(CNC(=O)C2CCN(C(=O)CSc3nc4ccccc4s3)CC2)n1 | 665
2 | Cc1[nH]nc(-c2c(C)sc(C)c2S(=O)(=O)NCCCc2ccccc2)c1C | 1130
3 | Cc1ccc(CS(=O)(=O)Nc2ccc3c(c2)nc(-c2ccc(C(=O)NC(C)C)cc2)n3C)cc1 | 702
4 | O=C(Nc1c(-c2ccccc2)nc2ccc(Cl)cn12)c1cccs1 | 735
5 | CC(Oc1ccccc1)c1nc(-c2ccc3c(c2)nnn3CCC(=O)N2CCCC2)no1 (stereo not given) | 899
6 | COc1ccc(-n2nc(-c3nc(-c4ccccn4)no3)c3ccccc3c2=O)cc1 | 946
7 | CCc1noc(C2(NC(=O)c3nn(C)c4ccccc34)CCCCC2)n1 | 1010
8 | Oc1ccc(-c2csc(Nc3ccccn3)n2)cc1O | 621
9 | CC(=O)Nc1ccc(C(=O)N2CCCCCC2)o1 | 665
10 | COc1ccc(C2Cn3cnc(C(=O)N4CCC(C(=O)NCc5cccs5)CC4)c3CO2)cc1 (stereo not given) | 715
11 | Cc1c(Cl)cccc1S(=O)(=O)N1CCN(c2nc3ccncc3n(C)c2=O)CC1 | 732
12 | CC(C)(C)CC(C)(C)n1nnnc1N | 771
13 | c1ccc(Cc2nn3c(CSc4ccccc4)nnc3s2)cc1 | 927
14 | CCOc1ccc(-c2[nH]nc3nc(-c4cccc(OC)c4)cc(C(=O)O)c23)cc1 | 821
15 | CCOc1ccccc1NC(=O)N1CCc2nc[nH]c2C1 | 577
16 | CN1C(=O)c2cc(S(=O)(=O)Nc3ccc(F)cc3)ccc2Oc2cccnc21 | 906
17 | O=C(Cc1nnc(-c2ccc3ncccc3c2)o1)Nc1cccc(C(F)(F)F)c1 | 802
18 | O=C(NCc1ccc(F)cc1F)C1CCN(c2ncnc3c2oc2ccccc23)CC1 | 761
19 | O=C(NCCc1nc(-c2ccc3c(c2)OCO3)n[nH]1)c1ccc(F)cc1Cl | 692
20 | Clc1ccccc1Cc1nc(-c2ccc(OC3CCNC3)cc2)no1 (stereo not given) | 704
21 | CN1C(=O)c2ccccc2Oc2ccc(C(=O)N3CCCC3)cc21 | 719
22 | Cc1ccc2c(c1)C(=O)NC1(CCN(C(=O)Nc3ccc(C)c(C)c3)CC1)N2C | 796
23 | COc1ccc(-c2nc(C3CC(=O)N(c4ccc(F)cc4)C3)no2)cc1F (stereo not given) | 969

Row | Structure (SMILES) | RP-LC retention time [s]
24 | CC(=O)N1CCN(c2nc3c(s2)CC(C(=O)Nc2cccc(Cl)c2)CC3)CC1 (stereo not given) | 628
25 | COc1ccc(C)cc1NC(=O)C1CCCN(C(=O)C2Sc3ccccc3NC2=O)C1 (stereo not given) | 852
26 | Cc1csc(-c2cc(S(=O)(=O)NC3CC3)cn2CC(=O)N2CCCCC2)n1 | 841
27 | Cc1cc(C)c2c(N(C)C)nc(C(=O)NCCN(C)C3CCCCC3)nc2n1 | 562
28 | Cc1cc(C)cc(NC(=O)Cn2ncc3c(c2=O)N(C2CC2)C(=O)CS3)c1 | 797
29 | COc1ccc(-c2n[nH]c3c2C(c2cccc(O)c2)N(C)C3=O)cc1 (stereo not given) | 686
30 | CCOC(=O)c1c(C)n(Cc2ccco2)c2ccc(OC)cc12 | 1050
31 | CC(C)c1nnc(-c2cccnc2N2CCN(C(=O)c3ccc4[nH]ccc4c3)CC2)o1 | 749
32 | Cc1ccccc1Nc1nc(-c2ccccc2)cs1 | 1120
33 | CCOC(=O)Nc1cccc(C(F)(F)F)c1 | 890
34 | CN(C)c1cccc(C(=O)NC2CCN(c3cc(-c4ccccc4)[nH]n3)C2)c1 (stereo not given) | 664
35 | O=C(CN1c2ccccc2NC2=C(C(=O)CCC2)C1c1ccco1)Nc1ccc(F)cc1 (stereo not given) | 1070
36 | CC1CC(=O)N(CC(=O)Nc2ccc(C(F)(F)F)cc2)c2ccccc2S1(=O)=O (stereo not given) | 904
37 | O=C(NCCc1csc(-c2ccccc2)n1)C1CCN(S(=O)(=O)c2ccc(Cl)cc2)CC1 | 984
38 | CN(C)CC[C@@H](c1ccc(Cl)cc1)c1ccccn1 | 659
39 | CC(c1ccccc1)N1CC(=O)N(c2cccc(Cl)c2)[C@@H]2CS(=O)(=O)C[C@@H]21 (stereo not given in full) | 894
40 | CN(CC1CCOCC1)C(=O)Nc1ccccc1F | 720
41 | CCc1ccccc1NC(=O)N1CCCC(Cn2cnc3cccnc32)C1 (stereo not given) | 719
42 | Cc1sc(C)c(S(=O)(=O)NCC(C)c2ccccc2)c1-c1cc(C(F)(F)F)on1 (stereo not given) | 1250
43 | COc1ccc(CNC(=O)C2CCN(c3ncnc4c3oc3ccccc34)CC2)c(OC)c1 | 752
44 | Cc1cc(NS(=O)(=O)c2ccc(-c3c(C)noc3C)cc2)ccc1Br | 1030
45 | Cc1coc(C)c1C(=O)Nc1ncc(Cc2ccc(Cl)cc2)s1 | 1020
